Patent US20220194940A1, “HETEROCYCLIC INHIBITORS OF TYROSINE KINASE” (Board of Regents, The University of Texas System, priority 2019, published 2022)

Legend:
Assay type in all cases: cell-based
EGFR H773L/V774M = target: T1, EGFR H773L/V774M (Homo sapiens, UniProt P00533, H773L/V774M); assay: Ba/F3 cell viability, EGFR H773L/V774M; conditions: logarithm of IC50
T1 construct: expressed in transfected cells; host or cells: Ba/F3 (retroviral transduction, pBABE-Puro-based vectors)
Method: (§1) 72 hours after transduction, 2 μg/ml puromycin (Invitrogen) was added to the medium.

EGFR P772insDNP = target: T2, EGFR P772insDNP (Homo sapiens, UniProt P00533, INS772DNP); assay: Ba/F3 cell viability, EGFR P772insDNP; conditions: logarithm of IC50
T2 construct: expressed in transfected cells; host or cells: Ba/F3 (retroviral transduction, pBABE-Puro-based vectors)
Method: as §1

EGFR A767insASV = EGFR A767insASV (Homo sapiens, UniProt P00533, cells depend on it, form not given); assay: Ba/F3 cell viability, EGFR A767insASV; conditions: logarithm of IC50, second listing in Table 2 (r23)
Method: as §1

EGFR S768dupSVD/T790M = target: T3, EGFR S768dupSVD/T790M (Homo sapiens, UniProt P00533, DUP768-770/T790M); assay: Ba/F3 cell viability, EGFR S768dupSVD/T790M; conditions: logarithm of IC50
T3 construct: expressed in transfected cells; host or cells: Ba/F3 (retroviral transduction, pBABE-Puro-based vectors)
Method: as §1

EGFR H773insAH = target: T4, EGFR H773insAH (Homo sapiens, UniProt P00533, INS773AH); assay: Ba/F3 cell viability, EGFR H773insAH; conditions: logarithm of IC50
T4 construct: expressed in transfected cells; host or cells: Ba/F3 (retroviral transduction, pBABE-Puro-based vectors)
Method: as §1

EGFR N771insSVDNR = target: T5, EGFR N771insSVDNR (Homo sapiens, UniProt P00533, INS771SVDNR); assay: Ba/F3 cell viability, EGFR N771insSVDNR
T5 construct: expressed in transfected cells; host or cells: Ba/F3 (retroviral transduction, pBABE-Puro-based vectors)
T5 sequence (P00533 with tags, fused parts or gaps INS771SVDNR): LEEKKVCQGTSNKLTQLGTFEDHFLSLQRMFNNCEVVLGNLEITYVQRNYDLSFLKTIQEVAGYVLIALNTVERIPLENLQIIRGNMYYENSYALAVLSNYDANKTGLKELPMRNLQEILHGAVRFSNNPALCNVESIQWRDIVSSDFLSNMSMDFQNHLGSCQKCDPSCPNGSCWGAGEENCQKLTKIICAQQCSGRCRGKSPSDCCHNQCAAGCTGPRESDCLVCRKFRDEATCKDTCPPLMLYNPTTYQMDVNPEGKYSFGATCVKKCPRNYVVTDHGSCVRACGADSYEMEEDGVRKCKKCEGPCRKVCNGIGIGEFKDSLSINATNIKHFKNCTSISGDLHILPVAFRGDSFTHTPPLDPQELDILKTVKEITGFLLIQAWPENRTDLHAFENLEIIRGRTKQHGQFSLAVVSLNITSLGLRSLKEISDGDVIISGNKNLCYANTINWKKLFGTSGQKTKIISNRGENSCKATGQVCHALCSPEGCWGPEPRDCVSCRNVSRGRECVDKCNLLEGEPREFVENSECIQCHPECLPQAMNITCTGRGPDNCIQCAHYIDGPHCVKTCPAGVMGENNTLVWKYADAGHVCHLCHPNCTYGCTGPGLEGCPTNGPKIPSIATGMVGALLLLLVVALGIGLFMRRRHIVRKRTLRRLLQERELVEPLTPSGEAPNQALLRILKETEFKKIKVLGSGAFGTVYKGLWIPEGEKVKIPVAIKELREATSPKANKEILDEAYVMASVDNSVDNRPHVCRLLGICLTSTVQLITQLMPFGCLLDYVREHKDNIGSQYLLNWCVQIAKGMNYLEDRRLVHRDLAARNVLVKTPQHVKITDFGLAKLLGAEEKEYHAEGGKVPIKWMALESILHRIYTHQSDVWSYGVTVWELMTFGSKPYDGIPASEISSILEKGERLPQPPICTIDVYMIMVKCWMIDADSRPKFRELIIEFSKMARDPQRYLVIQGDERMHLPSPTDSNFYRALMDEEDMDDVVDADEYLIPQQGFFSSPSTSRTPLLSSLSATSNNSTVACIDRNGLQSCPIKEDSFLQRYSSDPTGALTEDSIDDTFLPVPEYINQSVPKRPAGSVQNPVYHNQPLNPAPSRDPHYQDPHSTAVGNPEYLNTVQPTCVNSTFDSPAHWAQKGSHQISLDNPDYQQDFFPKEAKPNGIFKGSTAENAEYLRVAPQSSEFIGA
Method: as §1

EGFR V769insMASVD = target: T6, EGFR V769insMASVD (Homo sapiens, UniProt P00533, INS769MASVD); assay: Ba/F3 cell viability, EGFR V769insMASVD; conditions: logarithm of IC50
T6 construct: expressed in transfected cells; host or cells: Ba/F3 (retroviral transduction, pBABE-Puro-based vectors)
T6 sequence (P00533 with tags, fused parts or gaps INS769MASVD): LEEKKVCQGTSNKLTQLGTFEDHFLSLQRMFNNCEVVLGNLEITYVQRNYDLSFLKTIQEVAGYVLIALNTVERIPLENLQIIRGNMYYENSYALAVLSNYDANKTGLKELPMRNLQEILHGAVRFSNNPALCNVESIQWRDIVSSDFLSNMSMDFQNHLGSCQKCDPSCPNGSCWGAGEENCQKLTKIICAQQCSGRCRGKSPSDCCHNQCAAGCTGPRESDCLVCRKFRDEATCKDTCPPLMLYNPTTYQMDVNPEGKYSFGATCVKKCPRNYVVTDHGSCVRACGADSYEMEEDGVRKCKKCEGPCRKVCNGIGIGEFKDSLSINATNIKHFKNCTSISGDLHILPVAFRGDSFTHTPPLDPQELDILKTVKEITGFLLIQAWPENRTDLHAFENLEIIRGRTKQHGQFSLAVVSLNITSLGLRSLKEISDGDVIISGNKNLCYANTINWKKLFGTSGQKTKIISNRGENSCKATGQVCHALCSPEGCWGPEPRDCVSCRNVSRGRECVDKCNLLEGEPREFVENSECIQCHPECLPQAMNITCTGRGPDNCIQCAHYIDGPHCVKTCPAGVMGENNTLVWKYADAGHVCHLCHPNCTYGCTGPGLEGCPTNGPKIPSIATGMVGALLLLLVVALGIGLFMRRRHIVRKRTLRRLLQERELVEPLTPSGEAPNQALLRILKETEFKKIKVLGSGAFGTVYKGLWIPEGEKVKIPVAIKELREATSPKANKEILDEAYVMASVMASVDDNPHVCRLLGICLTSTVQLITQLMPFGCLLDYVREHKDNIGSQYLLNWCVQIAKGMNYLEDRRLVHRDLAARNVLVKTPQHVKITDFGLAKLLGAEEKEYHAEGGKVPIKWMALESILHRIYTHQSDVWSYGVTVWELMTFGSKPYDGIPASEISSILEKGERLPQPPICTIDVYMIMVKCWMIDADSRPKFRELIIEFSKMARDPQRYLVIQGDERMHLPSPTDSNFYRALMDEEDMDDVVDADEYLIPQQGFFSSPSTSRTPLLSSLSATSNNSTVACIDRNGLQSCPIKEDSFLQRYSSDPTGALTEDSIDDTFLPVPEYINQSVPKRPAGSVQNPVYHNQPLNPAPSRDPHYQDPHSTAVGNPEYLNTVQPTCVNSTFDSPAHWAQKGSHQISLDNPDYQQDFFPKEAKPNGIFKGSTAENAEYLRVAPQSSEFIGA
Method: as §1

EGFR V769L = target: T7, EGFR V769L (Homo sapiens, UniProt P00533, V769L); assay: Ba/F3 cell viability, EGFR V769L; conditions: logarithm of IC50
T7 construct: expressed in transfected cells; host or cells: Ba/F3 (retroviral transduction, pBABE-Puro-based vectors)
Method: as §1

EGFR V769insGSV = target: T8, EGFR V769insGSV (Homo sapiens, UniProt P00533, INS769GSV); assay: Ba/F3 cell viability, EGFR V769insGSV; conditions: logarithm of IC50
T8 construct: expressed in transfected cells; host or cells: Ba/F3 (retroviral transduction, pBABE-Puro-based vectors)
Method: as §1

EGFR WT = target: T9, EGFR WT (Homo sapiens, UniProt P00533); assay: Ba/F3 cell viability (Cell Titer Glo), WT EGFR
T9 construct: expressed in transfected cells; host or cells: Ba/F3 (retroviral transduction, pBABE-Puro-based vectors)
T9 sequence (P00533 25-1210): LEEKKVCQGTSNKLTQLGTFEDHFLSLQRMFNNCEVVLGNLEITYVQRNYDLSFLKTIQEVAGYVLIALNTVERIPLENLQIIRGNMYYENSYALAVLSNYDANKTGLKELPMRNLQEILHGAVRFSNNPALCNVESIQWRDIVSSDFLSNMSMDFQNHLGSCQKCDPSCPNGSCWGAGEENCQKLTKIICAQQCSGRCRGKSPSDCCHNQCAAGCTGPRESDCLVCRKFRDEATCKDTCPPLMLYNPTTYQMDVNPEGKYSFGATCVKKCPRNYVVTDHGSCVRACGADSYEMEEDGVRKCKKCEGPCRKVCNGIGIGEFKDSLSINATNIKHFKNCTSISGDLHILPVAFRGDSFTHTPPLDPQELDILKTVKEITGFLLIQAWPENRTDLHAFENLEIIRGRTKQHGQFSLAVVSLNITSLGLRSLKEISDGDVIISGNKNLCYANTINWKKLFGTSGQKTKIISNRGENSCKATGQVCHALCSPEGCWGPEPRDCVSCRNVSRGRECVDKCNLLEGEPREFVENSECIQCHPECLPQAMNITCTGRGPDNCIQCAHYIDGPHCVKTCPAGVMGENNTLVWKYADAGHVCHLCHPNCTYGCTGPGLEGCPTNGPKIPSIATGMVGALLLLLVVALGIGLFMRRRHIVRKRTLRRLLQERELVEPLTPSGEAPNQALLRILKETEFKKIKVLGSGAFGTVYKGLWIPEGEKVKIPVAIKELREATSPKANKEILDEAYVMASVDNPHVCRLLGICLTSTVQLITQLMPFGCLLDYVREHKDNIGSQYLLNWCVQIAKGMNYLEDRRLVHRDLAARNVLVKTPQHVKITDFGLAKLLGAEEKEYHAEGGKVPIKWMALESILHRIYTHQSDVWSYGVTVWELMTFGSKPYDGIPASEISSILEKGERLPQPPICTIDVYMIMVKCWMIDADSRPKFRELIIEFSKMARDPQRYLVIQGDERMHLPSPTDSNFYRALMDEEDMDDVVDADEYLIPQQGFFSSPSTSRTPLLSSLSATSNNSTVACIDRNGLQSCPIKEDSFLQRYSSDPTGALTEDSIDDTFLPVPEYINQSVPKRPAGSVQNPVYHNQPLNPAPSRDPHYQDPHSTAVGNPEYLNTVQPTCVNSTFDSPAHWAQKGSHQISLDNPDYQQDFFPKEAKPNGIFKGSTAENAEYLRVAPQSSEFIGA
Method: as §1

EGFR V769insGVV = target: T10, EGFR V769insGVV (Homo sapiens, UniProt P00533, INS769GVV); assay: Ba/F3 cell viability, EGFR V769insGVV; conditions: logarithm of IC50
T10 construct: expressed in transfected cells; host or cells: Ba/F3 (retroviral transduction, pBABE-Puro-based vectors)
Method: as §1

EGFR D770insNPG/C797S = target: T11, EGFR D770insNPG/C797S (Homo sapiens, UniProt P00533, C797S/INS770NPG); assay: Ba/F3 cell viability, EGFR D770insNPG/C797S; conditions: logarithm of IC50
T11 construct: expressed in transfected cells; host or cells: Ba/F3 (retroviral transduction, pBABE-Puro-based vectors)
Method: as §1

EGFR N771insHH = target: T12, EGFR N771insHH (Homo sapiens, UniProt P00533, INS771HH); assay: Ba/F3 cell viability, EGFR N771insHH; conditions: logarithm of IC50
T12 construct: expressed in transfected cells; host or cells: Ba/F3 (retroviral transduction, pBABE-Puro-based vectors)
Method: as §1

EGFR S768I T790M = target: T13, EGFR S768I T790M (Homo sapiens, UniProt P00533, S768I/T790M); assay: Ba/F3 cell viability, EGFR S768I T790M; conditions: logarithm of IC50
T13 construct: expressed in transfected cells; host or cells: Ba/F3 (retroviral transduction, pBABE-Puro-based vectors)
Method: as §1

EGFR S768dupSVD/C797S = target: T14, EGFR S768dupSVD/C797S (Homo sapiens, UniProt P00533, C797S/DUP768-770); assay: Ba/F3 cell viability, EGFR S768dupSVD/C797S; conditions: logarithm of IC50
T14 construct: expressed in transfected cells; host or cells: Ba/F3 (retroviral transduction, pBABE-Puro-based vectors)
Method: as §1

EGFR D770insNPG/T790M = target: T15, EGFR D770insNPG/T790M (Homo sapiens, UniProt P00533, INS770NPG/T790M); assay: Ba/F3 cell viability, EGFR D770insNPG/T790M; conditions: logarithm of IC50
T15 construct: expressed in transfected cells; host or cells: Ba/F3 (retroviral transduction, pBABE-Puro-based vectors)
Method: as §1

EGFR A767insTLA = target: T16, EGFR A767insTLA (Homo sapiens, UniProt P00533, INS767TLA); assay: Ba/F3 cell viability, EGFR A767insTLA; conditions: logarithm of IC50
T16 construct: expressed in transfected cells; host or cells: Ba/F3 (retroviral transduction, pBABE-Puro-based vectors)
Method: as §1

EGFR D770del insGY = target: T17, EGFR D770del insGY (Homo sapiens, UniProt P00533, D770Y/INS769G); assay: Ba/F3 cell viability, EGFR D770del insGY; conditions: logarithm of IC50
T17 construct: expressed in transfected cells; host or cells: Ba/F3 (retroviral transduction, pBABE-Puro-based vectors)
Method: as §1

T1 sequence (P00533 25-1210 H773L/V774M): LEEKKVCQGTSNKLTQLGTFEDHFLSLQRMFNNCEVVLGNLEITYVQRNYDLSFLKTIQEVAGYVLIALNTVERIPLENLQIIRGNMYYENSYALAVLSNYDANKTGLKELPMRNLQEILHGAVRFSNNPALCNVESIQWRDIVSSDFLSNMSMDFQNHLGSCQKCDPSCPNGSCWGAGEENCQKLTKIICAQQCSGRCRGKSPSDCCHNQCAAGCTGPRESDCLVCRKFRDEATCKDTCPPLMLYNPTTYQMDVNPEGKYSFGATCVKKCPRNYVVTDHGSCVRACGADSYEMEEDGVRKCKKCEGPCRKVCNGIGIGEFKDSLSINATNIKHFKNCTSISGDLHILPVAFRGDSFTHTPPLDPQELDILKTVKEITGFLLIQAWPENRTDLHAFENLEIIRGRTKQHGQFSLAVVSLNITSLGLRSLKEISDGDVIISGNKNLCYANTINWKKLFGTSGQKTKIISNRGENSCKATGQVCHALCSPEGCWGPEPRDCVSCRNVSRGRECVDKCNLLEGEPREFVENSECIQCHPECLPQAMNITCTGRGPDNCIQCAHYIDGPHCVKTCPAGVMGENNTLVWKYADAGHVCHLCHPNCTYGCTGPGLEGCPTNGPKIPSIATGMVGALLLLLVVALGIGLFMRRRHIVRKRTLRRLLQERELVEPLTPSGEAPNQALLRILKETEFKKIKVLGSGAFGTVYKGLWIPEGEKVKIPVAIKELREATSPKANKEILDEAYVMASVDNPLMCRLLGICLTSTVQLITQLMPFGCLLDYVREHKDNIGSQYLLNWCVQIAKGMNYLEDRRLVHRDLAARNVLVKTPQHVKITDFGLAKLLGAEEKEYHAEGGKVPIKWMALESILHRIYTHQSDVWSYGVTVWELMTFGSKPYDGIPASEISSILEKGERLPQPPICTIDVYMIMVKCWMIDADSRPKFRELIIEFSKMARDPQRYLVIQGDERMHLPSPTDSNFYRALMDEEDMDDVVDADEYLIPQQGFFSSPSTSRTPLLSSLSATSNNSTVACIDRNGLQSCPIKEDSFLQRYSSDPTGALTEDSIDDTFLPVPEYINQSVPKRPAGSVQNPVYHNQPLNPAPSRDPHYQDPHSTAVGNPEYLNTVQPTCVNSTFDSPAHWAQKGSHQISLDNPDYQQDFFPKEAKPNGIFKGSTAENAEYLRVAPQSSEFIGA

SMILES | Log(IC50, nM) (EGFR H773L/V774M) | Log(IC50, nM) (EGFR P772insDNP) | Log(IC50, nM) (EGFR A767insASV) | Log(IC50, nM) (EGFR S768dupSVD/T790M) | Log(IC50, nM) (EGFR H773insAH) | Log(IC50, nM) (EGFR N771insSVDNR; logarithm of IC50, first listing in Table 2 (r10)) | Log(IC50, nM) (EGFR N771insSVDNR; logarithm of IC50, second listing in Table 2 (r26)) | Log(IC50, nM) (EGFR V769insMASVD) | Log(IC50, nM) (EGFR V769L) | Log(IC50, nM) (EGFR V769insGSV) | Log(IC50, nM) (EGFR WT; Ba/F3 EGFR WT, comparison line of Table 3) | Log(IC50, nM) (EGFR WT; logarithm of IC50, Ba/F3 cells expressing EGFR WT, Cell Titer Glo, 3 days, Table 2) | Log(IC50, nM) (EGFR V769insGVV) | Log(IC50, nM) (EGFR D770insNPG/C797S) | Log(IC50, nM) (EGFR N771insHH) | Log(IC50, nM) (EGFR S768I T790M) | Log(IC50, nM) (EGFR S768dupSVD/C797S) | Log(IC50, nM) (EGFR D770insNPG/T790M) | Log(IC50, nM) (EGFR A767insTLA) | Log(IC50, nM) (EGFR D770del insGY)
CN(C)C/C=C/C(=O)Nc1cc2c(Nc3ccc(Cl)c(Cl)c3)ncnc2cn1 [Example 2, (E)-N-(4-((3,4-dichlorophenyl)amino)pyrido[3,4-d]pyrimidin-6-yl)-4-(dimethylamino)but-2-enamide] | 1.41 log(nM) | 0.94 log(nM) | 0.51 nM | 2.73 log10(nM) | 0.88 log10(nM) | 0.98 log(nM) | 1.08 log(nM) | 0.88 log10(nM) | 0.98 log(nM) | 0.98 log(nM) | 1.03 log(nM) | 1.03 log(nM) | 1.40 log(nM) | 2.73 log10(nM) | 0.33 log10(nM) | 0.81 log10(nM) | 3.06 log(nM) | 2.40 log10(nM) | 0.83 log(nM) | 0.71 log10(nM)
CN(C)C/C=C/C(=O)Nc1cc2c(Nc3ccc(Cl)c(Br)c3)ncnc2cn1 [Example 1, (E)-N-(4-((3-Bromo-4-chlorophenyl)amino)pyrido[3,4-d]pyrimidin-6-yl)-4-(dimethylamino)but-2-enamide] |  |  | 0.55 nM |  |  |  |  |  |  |  |  |  |  |  |  |  |  |  |  | 
